Assays:
[1] = system: HEK293T cells expressing msGFP–HaloTag localized to the mitochondrial outer membrane; assay: HEK293T labeling and fluorescence microscopy; format: cell-based
From the text: Plasmid construction for mitochondria imaging and affinity purification. HaloTag, amplified from the pHTC HaloTag CMV-neo Vector (Promega; G7711) and monomeric-superfolder green fluorescent protein (msGFP; lab stock), was fused to the mitochondrial targeting signal from OMP25,8 interspacing flexible GS(GSS)4 linkers between each domain by PCR Splicing by Overlap Extension (SOE). This construct was subcloned into hSynapsin promoter bearing a copy of FUGW.9 FUGW was a gift from David Baltimore (Addgene plasmid # 14883; RRID:
Addgene_14883).10 This construct was designated as pF(UG) hSyn HaloTag-TEV-4×GS-msGFP- […]
HEK293T cell culture. HEK293T cells (ATCC) were passaged before 80% confluency by trypsinization (Corning; 25-053-CI) and trituration. The cell suspension was then plated on glass coverslips (Warner instruments; 64-0734, CS-18R17) coated with poly-D-lysine (Thermofisher; ICN10269491) and cultured in Dulbecco's modified Eagle medium (DMEM; ThermoFisher; 11965-118) supplemented with 10% (v/v) fetal bovine serum (FBS, Atlanta Biological) and penicillin/streptomycin (pen/strep; ThermoFisher; MT-30-001-CI) at 37 °C in a humidified 5% (v/v) CO2 environment following ATCC guidelines. These HEK293T cells were tested for mycoplasma contamination using the Universal Mycoplasma Detection Kit (ATCC; 30-1012K) and validated using Short Tandem Repeat profiling by ATCC (ATCC; 135-XV) within the previous year or were from newly purchased stock from ATCC. HEK293T cells were transfected with pF(UG) hSyn HaloTag-TEV-4×GS-msGFP-mito using a standard calcium phosphate protocol11 or using lipofectamine LTX reagent (ThermoFisher; 15338100). We note that this plasmid is optimized for lentivirus-mediated expression, but robust expression in HEK293T cells […]
HEK293T labeling and fluorescence microscopy. One day after HEK293T cell transfection, the GFP fluorescence signal was confirmed, and HaloTag ligand labeling experiments were conducted. For pulse–chase experiments, HEK293T cells were incubated with biotin-HaloTag ligand (17HTL; #G8281, Promega) at either 100 nM or 10 μM for 1 hour at 37 °C and chased with 100 nM of JF549-HaloTag ligand (2HTL). We also evaluated a commercial biotin-HaloTag ligand […]
indicated in the product information12 and from a previous publication.13 For labeling with biotin-JF-HaloTag ligands 13HTL–16HTL, cells were incubated with 100 nM or 1 µM ligand for 0.5–2 h at 37 °C. For imaging, the coverslips containing HEK293T cells were fixed with 4% (w/v) paraformaldehyde in PBS at 37 °C for 10 min, washed with PBS (3×), and mounted on glass slides with ProLong Glass Antifade Mountant with NucBlueTM Stain (ThermoFisher; P36981). These cells were imaged using a Zeiss LSM 880 with Airyscan and a plan-apochromatic 63×/1.40 oil objective in Fast Airyscan mode. The same image acquisition settings were used for each trial and condition. Images were then processed with automatic Airyscan deconvolution settings. For quantitation of labeling intensity, ROIs were drawn surrounding individual HEK cells, and the average fluorescence ratio (JF/msGFP) from multiple cells in each condition was measured; no background subtraction was necessary. […]
JF608-HaloTag ligand (14HTL), biotin-JF646-HaloTag ligand (15HTL), or biotin-JF635-HaloTag ligand (16HTL) for 1 h at 37 °C, washed 3× with dye-free media, then fixed with 4% paraformaldehyde in 0.1 M phosphate buffer for 15 min at 37 °C. Fixed cells were then washed 3× in 1× PBS and incubated with Hoechst 33342 (5µg/mL) for 15 min at 22 °C as a nuclear counterstain. Airyscan imaging was performed on a Zeiss LSM 980 with Airyscan 2 confocal microscope using a Plan APO 63×/1.4 oil DIC M27 objective. The same acquisition settings were used for all constructs labeled with 13HTL–16HTL. These single plane images were bulk processed in ZEN Blue (Zeiss) with automatic Airyscan settings.
Dye loading kinetics. Live U2OS.H2B.HaloTag stable cells were labeled over a time course of […]

HaloTag protein = target: T1, HaloTag protein (Rhodococcus rhodochrous, UniProt P0A3G2, A155T/A167V/A172T/A224E/C128F/C176G/D78G/E160K/E257K/H272N/K175M/K195N/L47V/L88M/N227D/S58T/T264A/Y273L/Y87F); assay: Absorbance/fluorescence increase upon HaloTag binding; format: biochemical; details: HaloTag conjugate vs free ligand
T1 construct: made in house
Description: HaloTag protein purification. The bacterial expression vector pRSET-A (Invitrogen) was used to recombinantly express HaloTag (HT7; Promega).1 The soluble 6×His-Tagged HaloTag protein was affinity purified by immobilized metal affinity chromatography (IMAC) on a 5 -mL Fast Flow HiTrap Sepharose 6 column (Cytiva) with a 0–200 mM imidazole elution gradient using an Avant Protein Purification System (ÄKTA). A280 peak fractions were pooled, concentrated by a spin concentrator, and dialyzed 3× into tris-buffered saline (TBS). The amino acid sequence of HaloTag (HT7) expressed from pRSET-A is noted below; the annotated DNA and amino acid sequences […]
Spectroscopy of HaloTag ligands and HaloTag conjugates. […]
± 2 °C). Absorption spectra were recorded on a Cary Model 100 spectrometer (Agilent) using 1-cm path length 1.0-mL quartz microcuvettes from Starna Cells. Fluorescence spectra were recorded on a Cary Eclipse fluorometer (Varian) using 1-cm path length 3.5-mL quartz cuvettes (Starna Cells). […] An aliquot of HaloTag protein (1.5 equiv) was added, and the resulting mixture was incubated until a consistent absorbance signal was observed (60–120 min).
To measure the fold-increase of absorbance upon HaloTag binding, a “no HaloTag” control experiment was performed where an equivalent volume of TBS blank was added in place of the protein. […]

T1 sequence (P0A3G2 other isoform, or with tags, fused parts or gaps with the stated changes): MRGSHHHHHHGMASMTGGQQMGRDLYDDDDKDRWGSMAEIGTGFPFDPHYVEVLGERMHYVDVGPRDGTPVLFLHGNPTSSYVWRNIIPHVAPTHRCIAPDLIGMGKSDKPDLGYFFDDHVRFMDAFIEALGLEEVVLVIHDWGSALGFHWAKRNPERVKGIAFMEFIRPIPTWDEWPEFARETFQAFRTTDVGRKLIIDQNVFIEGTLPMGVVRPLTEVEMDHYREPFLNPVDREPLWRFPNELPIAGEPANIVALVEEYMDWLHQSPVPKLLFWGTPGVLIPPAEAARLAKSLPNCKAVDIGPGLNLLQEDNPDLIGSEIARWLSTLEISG

SMILES	Pearson's correlation coefficient between rhodamine and GFP signals [1]	intracellular labeling by live-cell imaging [1]	fluorogenicity upon HaloTag binding (HaloTag protein) [fold]
C[Si]1(C)c2cc(N3CC(F)C3)ccc2C2(OC(=O)c3ccc(C(=O)NCCOCCOCCCCCCCl)cc32)c2ccc(N3CC(F)C3)cc21 [6HTL, JF635–HaloTag ligand, reference compound]	0.92	–	–
O=C(CCCCC1SCC2NC(=O)NC21)NCCOCCOCCNC(=O)C1C[N+](=c2ccc3c(-c4cc(C(=O)NCCOCCOCCCCCCCl)ccc4C(=O)[O-])c4ccc(N5CCC5)cc4oc-3c2)C1 (centres unmarked) [13HTL, biotin–JF549–HaloTag ligand]	–	low intracellular signal	–
C[Si]1(C)C2=CC(=[N+]3CC(C(=O)NCCOCCOCCNC(=O)CCCC[C@@H]4SC[C@@H]5NC(=O)N[C@@H]54)C3)C=CC2=C(c2cc(C(=O)NCCOCCOCCCCCCCl)ccc2C(=O)[O-])c2ccc(N3CCC3)cc21 (some centres unmarked) [15HTL, biotin–JF646–HaloTag ligand]	0.89	robust labeling and colocalization with mitochondrial-localized GFP	2.9
C[Si]1(C)C2=CC(=[N+]3CC(F)(C(=O)NCCOCCOCCNC(=O)CCCC[C@@H]4SC[C@@H]5NC(=O)N[C@@H]54)C3)C=CC2=C(c2cc(C(=O)NCCOCCOCCCCCCCl)ccc2C(=O)[O-])c2ccc(N3CC(F)C3)cc21 (some centres unmarked) [16HTL, biotin–JF635–HaloTag ligand]	0.87	robust labeling and colocalization with mitochondrial-localized GFP	17.6

Source: paper PMC12595484, “Optimizing multifunctional fluorescent ligands for intracellular labeling” (Proceedings of the National Academy of Sciences of the …, 2025)
